In PubChem BioAssay (NCI):
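Each compound was tested at five concentrations against cells in 96-well plates for 48 hours. GI50 = concentration required for 50% inhibition of growth. At the TGI there is no net growth.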 *1 amine or outer side, *2 acyl side, *3 side chain or, on linkers, in order; H or OH if unused. Where a SMILES comes first, the peptide text is derived from it. [ ]: non-standard residue; d: D form. X56 = CC[C@H](C)[C@H](OC(=O)[C@@H](C)[C@@H](CC)N[*:1])C(=O)[*:2]; X32 = C[C@H](N[*:1])C(=O)C(C)(C)C(=O)[*:2]; NMeY = CN[C@@H](Cc1ccc(O)cc1)C(=O)O; NMeL = CN[C@@H](CC(C)C)C(=O)O; NMeV = CN[C@H](C(=O)O)C(C)C

Legend:
Assay in all cases: inhibition of tumour cell growth, NCI panel, 48 h
[1] = tested on: DLD-1 colon
[2] = tested on: DMS 114 small cell lung
[3] = tested on: HOP-18 NSCLC
[4] = tested on: KM20L2 colon
[5] = tested on: LXFL 529 NSCLC
[6] = tested on: SNB-78 CNS
[7] = tested on: RXF-631 renal
[8] = tested on: MDA-N
[9] = tested on: XF 498 CNS

SMILES	TGI [1] [µM]	TGI [2] [µM]	TGI [3] [µM]	TGI [4] [µM]	TGI [5] [µM]	TGI [6] [µM]	TGI [8] [µM]	TGI [9] [µM]	also measured
NNC(=O)/C(NC(=O)c1ccccc1)=C(\N)c1ccc(Cl)cc1	> 100	> 100	> 100	> 100	> 100	> 100	–	–	–
O=c1c2ccccc2nc(-c2cccc(Cl)c2)n1NCC1(O)OCC(O)C(O)C1O (configuration not stated)	–	> 100	–	> 100	> 100	> 100	–	–	TGI [7]: > 100 µM
COc1ccc(/C=C/NC=O)cc1	–	–	–	–	–	–	> 100	–	–
NC(CC1=CCC=CC1)C(=O)O (configuration not stated)	–	–	–	–	–	–	> 100	–	–
COc1cc2c(c(OC)c1OC)-c1ccc(OC)c(=O)cc1[C@@H](N(C)C=O)CC2	> 100	–	> 100	–	> 100	> 100	–	> 23	TGI [7]: > 26.2 µM
O=c1c2cccnc2ncn1CCN1CCCC1	> 100	> 100	–	> 100	> 100	> 100	–	> 100	–
Cc1cc(N(CCCl)CCCl)ccc1/C=N/NC(=O)Cc1cc(=O)oc2cc(O)ccc12	–	–	–	–	–	–	32.4	–	–
c1ccc(COC2(OCc3ccccc3)CC3OC2C2NN=NC32)cc1 (configuration not stated)	31.3	–	92.9	> 100	29.3	86.3	–	35	–
CC1(C)CC(Nc2ccc(Nc3ccccc3)cc2)CC(C)(C)N1	> 100	42.9	> 100	> 78.6	> 56.8	> 100	32.7	> 54.2	TGI [7]: > 31.6 µM
Cc1ccc(Oc2ccc([N+](=O)[O-])cc2[N+](=O)[O-])c(C)c1	> 100	> 100	–	–	> 100	> 100	–	> 100	TGI [7]: > 100 µM
Cc1cccc(C)c1NC(=O)CCc1n[nH]c(=S)o1	> 100	> 100	> 100	> 100	> 100	> 100	–	–	–
C=CCn1cc(C(=O)NC(=O)NCCCCCOC(=O)CCCCCCCCCCC(=O)OCCCCCNC(=O)NC(=O)c2cn(CC=C)c(=O)n(C)c2=O)c(=O)n(C)c1=O	> 100	> 100	> 100	> 100	> 100	> 100	–	> 100	–
S=c1nc(N2CCCCC2)ss1	> 100	42.4	88.4	> 100	54.2	99.1	–	44.7	TGI [7]: 79.4 µM
COC(=O)C1C(OCc2ccccc2)C2CCC1(OC)C=C2C (configuration not stated)	> 100	> 100	> 100	> 100	> 100	> 100	–	> 86.7	–
Cc1c(N=Cc2ccc(N(CCC#N)CCC#N)cc2)c(=O)n(-c2ccccc2)n1C	> 100	> 100	> 100	> 100	> 100	> 100	> 100	> 80.6	–
CC1C(=O)O[C@H]2C1CC[C@@]1(C)[C@H](O)CC[C@@]13C[C@]2(O)OO3 (some centres not stated)	> 100	> 100	> 100	> 100	> 100	–	–	–	–
COc1cc(/C=C(\OC(C)=O)c2ccc3c(c2)OCO3)cc(OC)c1OC	60.6	29	> 100	> 100	34.9	91.9	–	27.7	–
Nc1nc(-c2cccc([N+](=O)[O-])c2)cc(-c2cc(-c3cccc([N+](=O)[O-])c3)nc(N)n2)n1	–	–	–	–	–	–	> 100	–	–
CC[C@H](C)[C@@H]1OC(=O)[C@@H](C)[C@@H](CC)NC(=O)[C@H](C)NC(=O)C(C)(C)C(=O)[C@H](C)NC(=O)[C@H](Cc2ccc(OC)cc2)N(C)C(=O)[C@H](C(C)C)N(C)C(=O)CNC(=O)[C@H](CC(C)C)N(C)C(=O)CNC1=O (cyclo(A[X56]G[NMeL]G[NMeV][NMeY](Me)[X32]))	2.12	1.13	0.0425	16.7	0.0823	–	–	0.173	–
CC/C=C/c1cc2cc[nH]c2c2c1C(C)C[C@@H]2C (some centres not stated)	> 100	51	73.7	–	41.9	67	–	–	–
Nc1ncnc2c1cnn2Cc1ccc(Cl)cc1	–	–	–	–	–	–	> 100	–	–
O=C(c1ccc(Cl)cc1)c1ccc(OCCSCCCCCCCCCCSCCOc2ccc(C(=O)c3ccc(Cl)cc3)cc2)cc1	> 100	–	–	> 100	–	> 100	–	–	TGI [7]: > 100 µM

SMILES	TGI [1] [µM]	TGI [2] [µM]	TGI [3] [µM]	TGI [4] [µM]	TGI [5] [µM]	TGI [6] [µM]	TGI [8] [µM]	TGI [9] [µM]	also measured
Cc1cc(=O)oc2cc(OS(C)(=O)=O)ccc12	–	–	–	–	–	–	> 100	–	–
COc1ccc(-c2cc(=O)c3c(OC)c(OC)c(OC)c(OC)c3o2)c(OC)c1	–	–	–	–	–	–	> 100	–	–
C=CC1=C(C)C2=NC1=CC1=NC(=CC3=C(C)C4=C(O)C(C(=O)OC)C(=C5NC(=C2)C(C)C5CCC(=O)OC)C4=N3)C(CC)=C1C (configuration not stated)	–	–	–	–	–	–	> 100	–	–
C/C(=N\N=C(N)N)C(CN(C)C)C(c1ccccc1)c1c(O)c2ccccc2oc1=O (configuration not stated)	> 100	> 100	> 100	> 100	> 100	> 100	> 100	> 100	–
Cn1cnc([N+](=O)[O-])c1Sc1nnnn1-c1ccccc1	22.1	33	8.26	–	15.4	34.2	–	24.6	TGI [7]: 30.6 µM
O=C(CC1C=CCS1(=O)=O)NCc1ccccc1 (configuration not stated)	–	–	–	–	–	–	> 100	–	–
CC1(O)CCC2(C#N)CCC1C2O (configuration not stated)	> 100	31.1	> 100	> 100	> 100	> 100	–	> 100	TGI [7]: > 100 µM
COc1ccc(OC)c2c(=S)c3ccccc3[nH]c12	> 100	> 100	–	> 100	> 100	–	> 100	> 100	TGI [7]: > 100 µM
COc1ccccc1-c1cc(=O)c2ccc(OC)c(OC)c2o1	–	–	–	–	–	–	> 100	–	–
N#CC1C2CCC3(CC2CCN1C(=O)c1ccccc1)OCCO3 (configuration not stated)	> 100	> 100	> 100	> 100	> 100	> 100	–	> 100	–
Cc1c2c(cc3c(=O)ccn(CCN(C)C)c13)c(=O)ccn2CCN(C)C	28.7	30.1	58.6	20.8	19.8	> 100	–	22.9	–
C1=Nc2ccccc2C=Nc2ccccc2C=Nc2ccccc2C=Nc2ccccc21.[Cl-].[Pt+2]	98.4	46.2	> 100	58	60	–	–	51.1	GI50 [1]: 17.8 µM; GI50 [2]: 12.1 µM; GI50 [3]: 22.3 µM; GI50 [4]: 21 µM; GI50 [5]: 10.3 µM; GI50 [7]: 30.9 µM; TGI [7]: 77.9 µM; GI50 [9]: 18.4 µM
COc1cc2c(cn1)[nH]c1ccccc12	> 100	> 100	> 100	> 100	> 100	> 100	–	> 100	TGI [7]: > 100 µM
COc1cc(Nc2nc3ccc(C(F)(F)F)cc3nc2-c2ccccc2)cc(OC)c1OC	> 100	–	–	26	> 100	> 100	–	–	–
N#CC1CC2(C(=O)C1=O)c1ccccc1-c1ccccc12 (configuration not stated)	> 100	> 100	> 100	> 100	> 100	–	–	–	–
C=C1C(=O)OC2CC(C)C3C=CC(=O)C3CC12 (configuration not stated)	–	6.22	16.9	12.8	2.67	19.2	5.73	3.4	TGI [7]: 13.7 µM
NS(=O)(=O)c1ccc(NC(=O)c2cccc3cc4ccccc4nc23)cc1	> 100	> 100	> 100	> 100	> 100	> 100	> 100	> 100	TGI [7]: > 100 µM
O=C(O)C1CCCCC1c1c2ccc(=O)cc-2oc2cc(O)ccc12 (configuration not stated)	–	–	–	–	–	–	> 100	–	–
CS(=O)(=O)OCCN(CCOS(C)(=O)=O)c1ccc(C=O)cc1	> 84	28.2	48.8	17.8	47.4	> 100	27.2	5.85	–
CSc1ncnc2c1CCN2	–	> 100	–	–	> 100	> 100	8.6	–	–
C1COCCOCCOCCOCCO1.CC(=O)[CH-]C(C)=O.CC(=O)[CH-]C(C)=O.CC(=O)[CH-]C(C)=O.[V]	> 100	82.1	77.9	61.7	41.2	–	–	–	GI50 [1]: 28 µM; GI50 [2]: 28.3 µM; GI50 [3]: 28.2 µM; GI50 [4]: 27.4 µM; GI50 [5]: 20.7 µM
O=C(NCc1ccncc1)C1COc2cc(-c3cc(=O)c4ccccc4o3)ccc2O1 (configuration not stated)	> 100	–	–	> 100	> 100	> 100	–	> 100	–
